System: mice
Experiment: Tail flick anti-nociception, naltrexone given with morphine from day 1 (Groups C, D, combined analysis)
Type: in vivo
Parameters: Enhancement of Latency (tail flick) / Enhancement of Latency by Naltrexone (tail flick): unit not given here
Protocol: In a third series of experiments, 40 male mice were randomized into 5 groups of eight. All mice were administered single 3 mg/kg morphine daily (b.i.d.), beginning on Day 1.
In a final series of experiments, 40 female mice were randomized into 5 groups of eight. All mice were administered single 3 mg/kg morphine daily (b.i.d.), beginning on Day 1.

O=C1CC[C@@]2(O)[C@H]3Cc4ccc(O)c5c4[C@@]2(CCN3CC2CC2)[C@H]1O5 [Naltrexone, naltrexone]
Enhancement of Latency by Naltrexone (tail flick) (female mice, Group 4: morphine 3 mg/kg + naltrexone 300 ng/kg b.i.d. from day 1, Day 3): 10.3
Enhancement of Latency by Naltrexone (tail flick) (female mice, Group 4: morphine 3 mg/kg + naltrexone 300 ng/kg b.i.d. from day 1, Day 5): 1.9
Enhancement of Latency by Naltrexone (tail flick) (female mice, Group 4: morphine 3 mg/kg + naltrexone 300 ng/kg b.i.d. from day 1, Day 7): 0.2
Enhancement of Latency by Naltrexone (tail flick) (female mice, Group 4: morphine 3 mg/kg + naltrexone 300 ng/kg b.i.d. from day 1, Day 10): 5.9
Enhancement of Latency by Naltrexone (tail flick) (female mice, Group 4: morphine 3 mg/kg + naltrexone 300 ng/kg b.i.d. from day 1, Day 11, single bolus 10 μg/kg naltrexone in addition): 0.8
Enhancement of Latency by Naltrexone (tail flick) (female mice, Group 5: morphine 3 mg/kg + naltrexone 3000 ng/kg b.i.d. from day 1, Day 1): 12.3
Enhancement of Latency by Naltrexone (tail flick) (female mice, Group 5: morphine 3 mg/kg + naltrexone 3000 ng/kg b.i.d. from day 1, Day 3): 9.6
Enhancement of Latency by Naltrexone (tail flick) (female mice, Group 5: morphine 3 mg/kg + naltrexone 3000 ng/kg b.i.d. from day 1, Day 5): 3.4
Enhancement of Latency by Naltrexone (tail flick) (female mice, Group 5: morphine 3 mg/kg + naltrexone 3000 ng/kg b.i.d. from day 1, Day 7): 1.9
Enhancement of Latency by Naltrexone (tail flick) (female mice, Group 5: morphine 3 mg/kg + naltrexone 3000 ng/kg b.i.d. from day 1, Day 10): 6.7
Enhancement of Latency by Naltrexone (tail flick) (female mice, Group 5: morphine 3 mg/kg + naltrexone 3000 ng/kg b.i.d. from day 1, Day 11, single bolus 10 μg/kg naltrexone in addition): −0.7
Latency versus other doses (female mice, dose 0.3 ng/kg as printed, not significantly different from 0.03 or 3 ng/kg): gave the longest latency
Latency versus other concentrations (male mice, Groups A and C combined, days 8 and 10, naltrexone at 300 ng): gave the greatest latency
Enhancement of Latency by Naltrexone (tail flick) (male mice, Group 2: morphine 3 mg/kg + naltrexone 3 ng/kg b.i.d. from day 1, Day 1): 13.3
Enhancement of Latency by Naltrexone (tail flick) (male mice, Group 2: morphine 3 mg/kg + naltrexone 3 ng/kg b.i.d. from day 1, Day 3): 7.5
Enhancement of Latency by Naltrexone (tail flick) (male mice, Group 2: morphine 3 mg/kg + naltrexone 3 ng/kg b.i.d. from day 1, Day 5): 4.5
Enhancement of Latency by Naltrexone (tail flick) (male mice, Group 2: morphine 3 mg/kg + naltrexone 3 ng/kg b.i.d. from day 1, Day 8): 5.5
Enhancement of Latency by Naltrexone (tail flick) (male mice, Group 2: morphine 3 mg/kg + naltrexone 3 ng/kg b.i.d. from day 1, Day 10): 2.7
Enhancement of Latency by Naltrexone (tail flick) (male mice, Group 2: morphine 3 mg/kg + naltrexone 3 ng/kg b.i.d. from day 1, Day 12, single bolus 10 μg/kg naltrexone to every mouse): 1.1
Enhancement of Latency by Naltrexone (tail flick) (male mice, Group 3: morphine 3 mg/kg + naltrexone 30 ng/kg b.i.d. from day 1, Day 1): 12.4
Enhancement of Latency by Naltrexone (tail flick) (male mice, Group 3: morphine 3 mg/kg + naltrexone 30 ng/kg b.i.d. from day 1, Day 3): 9.3
Enhancement of Latency by Naltrexone (tail flick) (male mice, Group 3: morphine 3 mg/kg + naltrexone 30 ng/kg b.i.d. from day 1, Day 5): 7.5
Enhancement of Latency by Naltrexone (tail flick) (male mice, Group 3: morphine 3 mg/kg + naltrexone 30 ng/kg b.i.d. from day 1, Day 8): 7.1
Enhancement of Latency by Naltrexone (tail flick) (male mice, Group 3: morphine 3 mg/kg + naltrexone 30 ng/kg b.i.d. from day 1, Day 10): 3.2
Enhancement of Latency by Naltrexone (tail flick) (male mice, Group 3: morphine 3 mg/kg + naltrexone 30 ng/kg b.i.d. from day 1, Day 12, single bolus 10 μg/kg naltrexone to every mouse): −0.8
Enhancement of Latency by Naltrexone (tail flick) (male mice, Group 4: morphine 3 mg/kg + naltrexone 300 ng/kg b.i.d. from day 1, Day 1): 16.3
Enhancement of Latency by Naltrexone (tail flick) (male mice, Group 4: morphine 3 mg/kg + naltrexone 300 ng/kg b.i.d. from day 1, Day 3): 17.1
Enhancement of Latency by Naltrexone (tail flick) (male mice, Group 4: morphine 3 mg/kg + naltrexone 300 ng/kg b.i.d. from day 1, Day 5): 11.8
Enhancement of Latency by Naltrexone (tail flick) (male mice, Group 4: morphine 3 mg/kg + naltrexone 300 ng/kg b.i.d. from day 1, Day 8): 9.4
Enhancement of Latency by Naltrexone (tail flick) (male mice, Group 4: morphine 3 mg/kg + naltrexone 300 ng/kg b.i.d. from day 1, Day 10): 6.1
Enhancement of Latency by Naltrexone (tail flick) (male mice, Group 4: morphine 3 mg/kg + naltrexone 300 ng/kg b.i.d. from day 1, Day 12, single bolus 10 μg/kg naltrexone to every mouse): −0.2
Enhancement of Latency by Naltrexone (tail flick) (male mice, Group 5: morphine 3 mg/kg + naltrexone 3000 ng/kg b.i.d. from day 1, Day 1): 13.5
Enhancement of Latency by Naltrexone (tail flick) (male mice, Group 5: morphine 3 mg/kg + naltrexone 3000 ng/kg b.i.d. from day 1, Day 3): 13.0
Enhancement of Latency by Naltrexone (tail flick) (male mice, Group 5: morphine 3 mg/kg + naltrexone 3000 ng/kg b.i.d. from day 1, Day 5): 12.0
Enhancement of Latency by Naltrexone (tail flick) (male mice, Group 5: morphine 3 mg/kg + naltrexone 3000 ng/kg b.i.d. from day 1, Day 8): 10.4
Enhancement of Latency by Naltrexone (tail flick) (male mice, Group 5: morphine 3 mg/kg + naltrexone 3000 ng/kg b.i.d. from day 1, Day 10): 7.4
Enhancement of Latency by Naltrexone (tail flick) (male mice, Group 5: morphine 3 mg/kg + naltrexone 3000 ng/kg b.i.d. from day 1, Day 12, single bolus 10 μg/kg naltrexone to every mouse): −0.7
Enhancement of latency versus other concentrations (male mice, naltrexone at 300 ng with morphine 3 mg/kg from day 1, Days 1, 3, 5, 8, 10): significantly greater
Latency versus other concentrations (males and females combined, naltrexone 30 ng/kg and 300 ng/kg, days 1, 3, 5, 6, 8, 10): significantly longer latency
Development of tolerance to morphine (naltrexone in combination with morphine): prevents the mice from developing a tolerance to morphine
